Experimental data reported in ChEMBL document CHEMBL3994622, “Design and synthesis of new RAF kinase-inhibiting antiproliferative quinoline derivatives. Part 2: Diarylurea derivatives” (Eur J Med Chem, 2017).

These compounds were tested on HT-29 (assay: Growth inhibition of human HT-29 cells assessed as cell growth at 10 uM incubated for 48 hrs by sulforhodamine B assay relative to control). Details: HT-29, 48 h, read-out: Activity.
Type: functional
`COc1cc2cc(Oc3ccc(NC(=O)Nc4ccc(Cl)c(Cl)c4)cc3)c(C)nc2cc1OC` was tested, and the growth at 10 µM was 10.9%.

What follows are compounds tested on IGROV-1 (assay: Growth inhibition of human IGROV1 cells assessed as cell growth at 10 uM incubated for 48 hrs by sulforhodamine B assay relative to control). Details: IGROV-1, 48 h, read-out: Activity.
Type: functional
In the case of `COc1cc2cc(Oc3ccc(NC(=O)Nc4ccc(Cl)c(Cl)c4)cc3)c(C)nc2cc1OC`, the growth at 10 µM is reported as 18.6%.

What follows are compounds tested on SF-268 (assay: Growth inhibition of human SF268 cells assessed as cell growth at 10 uM incubated for 48 hrs by sulforhodamine B assay relative to control). Details: SF-268, 48 h, read-out: Activity.
Type: functional
`COc1cc2cc(Oc3ccc(NC(=O)Nc4ccc(Cl)c(Cl)c4)cc3)c(C)nc2cc1OC` was tested, and the growth at 10 µM was 43.7%.

Each compound was assayed on NCI-H23 (assay: Growth inhibition of human NCI-H23 cells assessed as cell growth at 10 uM incubated for 48 hrs by sulforhodamine B assay relative to control). Details: NCI-H23, 48 h, read-out: Activity.
Type: functional
`COc1cc2cc(Oc3ccc(NC(=O)Nc4ccc(Cl)c(Cl)c4)cc3)c(C)nc2cc1OC` was tested, and the growth at 10 µM was 8.26%.

The compounds below were run on LOX IMVI (assay: Growth inhibition of human LOXIMVI cells assessed as cell growth at 10 uM incubated for 48 hrs by sulforhodamine B assay relative to control). Details: read-out: Activity.
Type: functional
`COc1cc2cc(Oc3ccc(NC(=O)Nc4ccc(Cl)c(Cl)c4)cc3)c(C)nc2cc1OC` showed a growth at 10 µM of 23.1%.

These compounds were tested on NCI-H460 (assay: Growth inhibition of human NCI-H460 cells assessed as cell growth at 10 uM incubated for 48 hrs by sulforhodamine B assay relative to control). Details: NCI-H460, 48 h, read-out: Activity.
Type: functional
For `COc1cc2cc(Oc3ccc(NC(=O)Nc4ccc(Cl)c(Cl)c4)cc3)c(C)nc2cc1OC`, the growth at 10 µM was 3.68%.

These compounds were tested on Malme-3M (assay: Growth inhibition of human MALME-3M cells assessed as cell growth at 10 uM incubated for 48 hrs by sulforhodamine B assay relative to control). Details: read-out: Activity.
Type: functional
Work on `COc1cc2cc(Oc3ccc(NC(=O)Nc4ccc(Cl)c(Cl)c4)cc3)c(C)nc2cc1OC` yielded a growth at 10 µM of 14.9%.

Each compound was assayed on SF-295 (assay: Growth inhibition of human SF295 cells assessed as cell growth at 10 uM incubated for 48 hrs by sulforhodamine B assay relative to control). Details: SF-295, 48 h, read-out: Activity.
Type: functional
In the case of `COc1cc2cc(Oc3ccc(NC(=O)Nc4ccc(Cl)c(Cl)c4)cc3)c(C)nc2cc1OC`, the growth at 10 µM is reported as 0.69%.

These compounds were tested on HCT-15 (assay: Growth inhibition of human HCT15 cells assessed as cell growth at 10 uM incubated for 48 hrs by sulforhodamine B assay relative to control). Details: HCT-15, 48 h, read-out: Activity.
Type: functional
Work on `COc1cc2cc(Oc3ccc(NC(=O)Nc4ccc(Cl)c(Cl)c4)cc3)c(C)nc2cc1OC` yielded a growth at 10 µM of 18.9%.

The compounds below were run on SF-539 (assay: Growth inhibition of human SF539 cells assessed as cell growth at 10 uM incubated for 48 hrs by sulforhodamine B assay relative to control). Details: SF-539, 48 h, read-out: Activity.
Type: functional
In the case of `COc1cc2cc(Oc3ccc(NC(=O)Nc4ccc(Cl)c(Cl)c4)cc3)c(C)nc2cc1OC`, the growth at 10 µM is reported as 38.5%.

Each compound was assayed on A498 (assay: Growth inhibition of human A498 cells assessed as cell growth at 10 uM incubated for 48 hrs by sulforhodamine B assay relative to control). Details: A498, 48 h, read-out: Activity.
Type: functional
For `COc1cc2cc(Oc3ccc(NC(=O)Nc4ccc(Cl)c(Cl)c4)cc3)c(C)nc2cc1OC`, the growth at 10 µM was 35.8%.

What follows are compounds tested on U-251 (assay: Growth inhibition of human U251 cells assessed as cell growth at 10 uM incubated for 48 hrs by sulforhodamine B assay relative to control). Details: U-251, 48 h, read-out: Activity.
Type: functional
With `COc1cc2cc(Oc3ccc(NC(=O)Nc4ccc(Cl)c(Cl)c4)cc3)c(C)nc2cc1OC` the growth at 10 µM was -32.3%.

The compounds below were run on MDA-MB-468 (assay: Growth inhibition of human MDA-MB-468 cells assessed as cell growth at 10 uM incubated for 48 hrs by sulforhodamine B assay relative to control). Details: MDA-MB-468, 48 h, read-out: Activity.
Type: functional
In the case of `COc1cc2cc(Oc3ccc(NC(=O)Nc4ccc(Cl)c(Cl)c4)cc3)c(C)nc2cc1OC`, the growth at 10 µM is reported as -16.7%.

What follows are compounds tested on K562 (assay: Growth inhibition of human K562 cells assessed as cell growth at 10 uM incubated for 48 hrs by sulforhodamine B assay relative to control). Details: K562, 48 h, read-out: Activity.
Type: functional
Work on `COc1cc2cc(Oc3ccc(NC(=O)Nc4ccc(Cl)c(Cl)c4)cc3)c(C)nc2cc1OC` yielded a growth at 10 µM of 12.7%.

What follows are compounds tested on MCF7 (assay: Growth inhibition of human MCF7 cells assessed as cell growth at 10 uM incubated for 48 hrs by sulforhodamine B assay relative to control). Details: MCF7, 48 h, read-out: Activity.
Type: functional
For `COc1cc2cc(Oc3ccc(NC(=O)Nc4ccc(Cl)c(Cl)c4)cc3)c(C)nc2cc1OC`, the growth at 10 µM was 13.8%.

What follows are compounds tested on SK-MEL-2 (assay: Growth inhibition of human SK-MEL-2 cells assessed as cell growth at 10 uM incubated for 48 hrs by sulforhodamine B assay relative to control). Details: SK-MEL-2, 48 h, read-out: Activity.
Type: functional
With `COc1cc2cc(Oc3ccc(NC(=O)Nc4ccc(Cl)c(Cl)c4)cc3)c(C)nc2cc1OC` the growth at 10 µM was -7.82%.

Each compound was assayed on HOP-92 (assay: Growth inhibition of human HOP92 cells assessed as cell growth at 10 uM incubated for 48 hrs by sulforhodamine B assay relative to control). Details: HOP-92, 48 h, read-out: Activity.
Type: functional
`COc1cc2cc(Oc3ccc(NC(=O)Nc4ccc(Cl)c(Cl)c4)cc3)c(C)nc2cc1OC` was tested, and the growth at 10 µM was -9.31%.

These compounds were tested on OVCAR-4 (assay: Growth inhibition of human OVCAR4 cells assessed as cell growth at 10 uM incubated for 48 hrs by sulforhodamine B assay relative to control). Details: OVCAR-4, 48 h, read-out: Activity.
Type: functional
`COc1cc2cc(Oc3ccc(NC(=O)Nc4ccc(Cl)c(Cl)c4)cc3)c(C)nc2cc1OC` was tested, and the growth at 10 µM was 31.9%.

The compounds below were run on MDA-MB-435 (assay: Growth inhibition of human MDA-MB-435 cells assessed as cell growth at 10 uM incubated for 48 hrs by sulforhodamine B assay relative to control). Details: MDA-MB-435, 48 h, read-out: Activity.
Type: functional
With `COc1cc2cc(Oc3ccc(NC(=O)Nc4ccc(Cl)c(Cl)c4)cc3)c(C)nc2cc1OC` the growth at 10 µM was 12.3%.

These compounds were tested on OVCAR-3 (assay: Growth inhibition of human OVCAR3 cells assessed as cell growth at 10 uM incubated for 48 hrs by sulforhodamine B assay relative to control). Details: OVCAR-3, 48 h, read-out: Activity.
Type: functional
`COc1cc2cc(Oc3ccc(NC(=O)Nc4ccc(Cl)c(Cl)c4)cc3)c(C)nc2cc1OC` was tested, and the growth at 10 µM was -10%.

The compounds below were run on COLO 205 (assay: Growth inhibition of human COLO205 cells assessed as cell growth at 10 uM incubated for 48 hrs by sulforhodamine B assay relative to control). Details: COLO 205, 48 h, read-out: Activity.
Type: functional
`COc1cc2cc(Oc3ccc(NC(=O)Nc4ccc(Cl)c(Cl)c4)cc3)c(C)nc2cc1OC` showed a growth at 10 µM of 4.03%.

The compounds below were run on 786-0 (assay: Growth inhibition of human 786-0 cells assessed as cell growth at 10 uM incubated for 48 hrs by sulforhodamine B assay relative to control). Details: 786-0, 48 h, read-out: Activity.
Type: functional
`COc1cc2cc(Oc3ccc(NC(=O)Nc4ccc(Cl)c(Cl)c4)cc3)c(C)nc2cc1OC` was tested, and the growth at 10 µM was 20.3%.

These compounds were tested on SK-MEL-5 (assay: Growth inhibition of human SK-MEL-5 cells assessed as cell growth at 10 uM incubated for 48 hrs by sulforhodamine B assay relative to control). Details: SK-MEL-5, 48 h, read-out: Activity.
Type: functional
`COc1cc2cc(Oc3ccc(NC(=O)Nc4ccc(Cl)c(Cl)c4)cc3)c(C)nc2cc1OC` was tested, and the growth at 10 µM was -35%.

Each compound was assayed on ACHN (assay: Growth inhibition of human ACHN cells assessed as cell growth at 10 uM incubated for 48 hrs by sulforhodamine B assay relative to control). Details: read-out: Activity.
Type: functional
`COc1cc2cc(Oc3ccc(NC(=O)Nc4ccc(Cl)c(Cl)c4)cc3)c(C)nc2cc1OC` showed a growth at 10 µM of 16.4%.

What follows are compounds tested on CAKI-1 (assay: Growth inhibition of human Caki1 cells assessed as cell growth at 10 uM incubated for 48 hrs by sulforhodamine B assay relative to control). Details: CAKI-1, 48 h, read-out: Activity.
Type: functional
With `COc1cc2cc(Oc3ccc(NC(=O)Nc4ccc(Cl)c(Cl)c4)cc3)c(C)nc2cc1OC` the growth at 10 µM was 21.8%.

These compounds were tested on T47D (assay: Growth inhibition of human T47D cells assessed as cell growth at 10 uM incubated for 48 hrs by sulforhodamine B assay relative to control). Details: read-out: Activity.
Type: functional
In the case of `COc1cc2cc(Oc3ccc(NC(=O)Nc4ccc(Cl)c(Cl)c4)cc3)c(C)nc2cc1OC`, the growth at 10 µM is reported as 60.9%.

The compounds below were run on SNB-19 (assay: Growth inhibition of human SNB19 cells assessed as cell growth at 10 uM incubated for 48 hrs by sulforhodamine B assay relative to control). Details: SNB-19, 48 h, read-out: Activity.
Type: functional
Work on `COc1cc2cc(Oc3ccc(NC(=O)Nc4ccc(Cl)c(Cl)c4)cc3)c(C)nc2cc1OC` yielded a growth at 10 µM of 28.6%.

The compounds below were run on UO-31 (assay: Growth inhibition of human UO31 cells assessed as cell growth at 10 uM incubated for 48 hrs by sulforhodamine B assay relative to control). Details: UO-31, 48 h, read-out: Activity.
Type: functional
`COc1cc2cc(Oc3ccc(NC(=O)Nc4ccc(Cl)c(Cl)c4)cc3)c(C)nc2cc1OC` gave a growth at 10 µM of 3.69%.

The compounds below were run on NCI-H226 (assay: Growth inhibition of human NCI-H226 cells assessed as cell growth at 10 uM incubated for 48 hrs by sulforhodamine B assay relative to control). Details: NCI-H226, 48 h, read-out: Activity.
Type: functional
`COc1cc2cc(Oc3ccc(NC(=O)Nc4ccc(Cl)c(Cl)c4)cc3)c(C)nc2cc1OC` showed a growth at 10 µM of 7.74%.

These compounds were tested on OVCAR-5 (assay: Growth inhibition of human OVCAR5 cells assessed as cell growth at 10 uM incubated for 48 hrs by sulforhodamine B assay relative to control). Details: OVCAR-5, 48 h, read-out: Activity.
Type: functional
Compound `COc1cc2cc(Oc3ccc(NC(=O)Nc4ccc(Cl)c(Cl)c4)cc3)c(C)nc2cc1OC` has a growth at 10 µM of 53%.

These compounds were tested on A549 (assay: Growth inhibition of human A549/ATCC cells assessed as cell growth at 10 uM incubated for 48 hrs by sulforhodamine B assay relative to control). Details: A549, 48 h, read-out: Activity.
Type: functional
`COc1cc2cc(Oc3ccc(NC(=O)Nc4ccc(Cl)c(Cl)c4)cc3)c(C)nc2cc1OC` showed a growth at 10 µM of 4.35%.

What follows are compounds tested on HL-60(TB) (assay: Growth inhibition of human HL-60(TB) cells assessed as cell growth at 10 uM incubated for 48 hrs by sulforhodamine B assay relative to control). Details: HL-60, 48 h, read-out: Activity.
Type: functional
`COc1cc2cc(Oc3ccc(NC(=O)Nc4ccc(Cl)c(Cl)c4)cc3)c(C)nc2cc1OC` gave a growth at 10 µM of 9.64%.

Each compound was assayed on UACC-62 (assay: Growth inhibition of human UACC62 cells assessed as cell growth at 10 uM incubated for 48 hrs by sulforhodamine B assay relative to control). Details: UACC-62, 48 h, read-out: Activity.
Type: functional
`COc1cc2cc(Oc3ccc(NC(=O)Nc4ccc(Cl)c(Cl)c4)cc3)c(C)nc2cc1OC` showed a growth at 10 µM of 20.4%.
